Values quoted from earlier work as cited in patent US20250352520A1, “USE OF DEXPRAMIPEXOLE FOR THE TREATMENT OF EOSINOPHILIC COPD” (Areteia Therapeutics, Inc., priority 2024, published 2025).
Where two headings read alike, the source gives them in different places.

B1: mepolizumab: a humanized monoclonal antibody against interleukin-5 (antibody, chains of the INN, looked up, V domains shown)
VH: QVTLRESGPALVKPTQTLTLTCTVSGFSLTSYSVHWVRQPPGKGLEWLGVIWASGGTDYNSALMSRLSISKDTSRNQVVLTMTNMDPVDTATYYCARDPPSSLLRLDYWGRGTPVTVSS
VL: DIVMTQSPDSLAVSLGERATINCKSSQSLLNSGNQKNYLAWYQQKPGQPPKLLIYGASTRESGVPDRFSGSGSGTDFTLTISSLQAEDVAVYYCQNVHSFPFTFGGGTKLEIK

Assays:
[1] = severe, uncontrolled, eosinophilic asthma; cited from earlier work
[2] = patients with COPD, cited from earlier work
[3] = cited from earlier work
[4] = COPD; cited from earlier work

Row | Molecule | eosinophils [1] | exacerbations [1] | lung function [1] | blood eosinophils ([2]; all doses, throughout the trial) | exacerbations [2] | asthma exacerbations [3] | biomarkers of asthma control [3] | blood eosinophil counts [4] | lung function and clinical outcomes [4]
1 | benralizumab: an anti-interleukin-5 receptor monoclonal antibody | effectively depleted eosinophils | decreased exacerbations | improved lung function | substantial depletion of blood eosinophils | failed to show statistically significant reduction of exacerbations |  |  |  | 
2 | B1 |  |  |  |  |  | significantly reduced asthma exacerbations | associated with improvements in biomarkers of asthma control, including eosinophil counts | effectively reduced blood eosinophil counts | not associated with consistent improvements in lung function and clinical outcomes
